Patent US9445594B2, “Molecules having certain pesticidal utilities, intermediates, compositions, and processes, related thereto” (priority 2014, dated 2016)

Experiments:
Type in all cases: in vivo
[1] = tested on: Cabbage Looper (Trichoplusia ni, TRIPNI) ("CL"); assay: Bioassays on CL, 128-well diet tray assay; details: 168 h, second instar larvae, 50 μg/cm^2 on artificial diet, 25° C., five to seven days, average of eight wells, read-out: CL % Control (or Mortality) rating
Experimental: (§1) Certain molecules disclosed in this document were tested against BAW, CEW, and CL using procedures described in the following examples. In the reporting of the results, the “BAW, CEW, & CL Rating Table” was used (See Table Section).
Bioassays on CL were conducted using a 128-well diet tray assay. one to five second instar CL larvae were placed in each well (3 mL) of the diet tray that had been previously filled with 1 mL of artificial diet to which 50 μg/cm^2 of the test compound (dissolved in 50 μL of 90:10 acetone-water mixture) had been applied (to each of eight wells) and then allowed to dry. Trays were covered with a clear self-adhesive cover and held at 25° C., 14:10 light-dark for five to seven days. Percent mortality was recorded for the larvae in each well; activity in the eight wells was then averaged. The results are indicated in the table entitled “Table ABC: Biological Results” (See Table Section).

[2] = tested on: Beet Armyworm (Spodoptera exigua, LAPHEG) ("BAW"); assay: Bioassays on BAW, 128-well diet tray assay; details: 168 h, second instar larvae, 50 μg/cm^2 on artificial diet, 25° C., five to seven days, average of eight wells, read-out: BAW % Control (or Mortality) rating
Experimental: as §1
Bioassays on BAW were conducted using a 128-well diet tray assay. one to five second instar BAW larvae were placed in each well (3 mL) of the diet tray that had been previously filled with 1 mL of artificial diet to which 50 μg/cm^2 of the test compound (dissolved in 50 μL of 90:10 acetone-water mixture) had been applied (to each of eight wells) and then allowed to dry. Trays were covered with a clear self-adhesive cover and held at 25° C., 14:10 light-dark for five to seven days. Percent mortality was recorded for the larvae in each well; activity in the eight wells was then averaged. The results are indicated in the table entitled “Table ABC: Biological Results” (See Table Section).

[3] = tested on: Yellow Fever Mosquito (Aedes aegypti, AEDSAE) ("YFM"); assay: Bioassays on YFM, 96-well plate larval assay; details: about 1 day-old larvae, from 4000 ppm DMSO master plate diluted, room temperature, scored after 3 days
Experimental: Certain molecules disclosed in this document were tested against YFM using procedures described in the following paragraph. In the reporting of the results, the “YFM Rating Table” was used (See Table Section).
Master plates containing 400 μg of a molecule dissolved in 100 μL of dimethyl sulfoxide (DMSO) (equivalent to a 4000 ppm solution) are used. A master plate of assembled molecules contains 15 μL per well. To this plate, 135 μL of a 90:10 water:acetone mixture is added to each well. A robot (Biomek® NXP Laboratory Automation Workstation) is programmed to dispense 15 μL aspirations from the master plate into an empty 96-well shallow plate (“daughter” plate). There are 6 reps (“daughter” plates) created per master. The created daughter plates are then immediately infested with YFM larvae.
The day before plates are to be treated, mosquito eggs are placed in Millipore water containing liver powder to begin hatching (4 g. into 400 mL). After the daughter plates are created using the robot, they are infested with 220 μL of the liver powder/larval mosquito mixture (about 1 day-old larvae). After plates are infested with mosquito larvae, a non-evaporative lid is used to cover the plate to reduce drying. Plates are held at room temperature for 3 days prior to grading. After 3 days, each well is observed and scored based on mortality.

Row | Compound | mortality at 50 µg/cm2 [1] | mortality at 50 µg/cm2 [2] | YFM % Control (or Mortality) rating [3]
1 | O=C(Nc1ccc(-c2ncn(-c3ccc(OC(F)(F)F)cc3)n2)cc1)Nc1ccccc1-n1cccc1 [F13, 1-(2-(1H-pyrrol-1-yl)phenyl)-3-(4-(1-(4-(trifluoromethoxy)phenyl)-1H-1,2,4-triazol-3-yl)phenyl)urea] | 50 to 100% | 50 to 100% | –
2 | O=C(NCc1ccc(-c2ncn(-c3ccc(OC(F)(F)F)cc3)n2)cc1)Nc1ccccc1-c1ccccc1 [F70, 1-([1,1′-biphenyl]-2-yl)-3-(4-(1-(4-(trifluoromethoxy)phenyl)-1H-1,2,4-triazol-3-yl)benzyl)urea] | 50 to 100% | 50 to 100% | –
3 | O=C(Nc1ccc(-c2ncn(-c3ccc(OC(F)(F)F)cc3)n2)cc1)Nc1ccccc1Cc1ccccc1 [F51, 1-(2-Benzylphenyl)-3-(4-(1-(4-(trifluoromethoxy)phenyl)-1H-1,2,4-triazol-3-yl)phenyl)urea] | 0 to 50% | 0 to 50% | D (No activity noticed in this bioassay)
4 | Cc1ccc(NC(=O)NCc2ccc(-c3ncn(-c4ccc(OC(F)(F)F)cc4)n3)cc2)cc1 [F102, 1-(p-Tolyl)-3-(4-(1-(4-(trifluoromethoxy)phenyl)-1H-1,2,4-triazol-3-yl)benzyl)urea] | 0% | 0% | D (No activity noticed in this bioassay)
5 | COc1ccc(NC(=O)NCCCc2ccc(-c3ncn(-c4ccc(OC(F)(F)F)cc4)n3)cc2)cc1 [F82, 1-(4-Methoxyphenyl)-3-(3-(4-(1-(4-(trifluoromethoxy)phenyl)-1H-1,2,4-triazol-3-yl)phenyl)propyl)urea] | 0% | – | D (No activity noticed in this bioassay)
6 | O=C(NCCCCc1ccc(-c2ncn(-c3ccc(OC(F)(F)F)cc3)n2)cc1)Nc1cccc(Cl)c1 [F93, 1-(3-Chlorophenyl)-3-(4-(4-(1-(4-(trifluoromethoxy)phenyl)-1H-1,2,4-triazol-3-yl)phenyl)butyl)urea] | 50 to 100% | 0% | D (No activity noticed in this bioassay)
7 | CCc1ccccc1N(C(=O)Nc1ccc(-c2ncn(-c3ccc(OC(F)(F)F)cc3)n2)cc1)C(N)=S [F52, N-(2-Ethylphenyl)-N-(4-{1-[4-(trifluoromethoxy)phenyl]-1H-1,2,4-triazol-3-yl}phenyl)dicarbonimidothioic diamide] | 50 to 100% | 50 to 100% | –
8 | CSc1ccccc1-c1ccccc1NC(=S)Nc1ccc(-c2ncn(-c3ccc(OC(F)(F)F)cc3)n2)cc1 [F42, 1-(2′-(Methylthio)-[1,1′-biphenyl]-2-yl)-3-(4-(1-(4-(trifluoromethoxy)phenyl)-1H-1,2,4-triazol-3-yl)phenyl)thiourea] | 50 to 100% | 50 to 100% | B (More than 0 - Less than 80)
9 | CCc1ccccc1NC(=O)NCCCCc1ccc(-c2ncn(-c3ccc(OC(F)(F)F)cc3)n2)cc1 [F98, 1-(2-Ethylphenyl)-3-(4-(4-(1-(4-(trifluoromethoxy)phenyl)-1H-1,2,4-triazol-3-yl)phenyl)butyl)urea] | 0% | 0 to 50% | D (No activity noticed in this bioassay)
10 | CC(C)c1ccccc1NC(=O)NCCCc1ccc(-c2ncn(-c3ccc(OC(F)(F)F)cc3)n2)cc1 [F78, 1-(2-Isopropylphenyl)-3-(3-(4-(1-(4-(trifluoromethoxy)phenyl)-1H-1,2,4-triazol-3-yl)phenyl)propyl)urea] | 50 to 100% | 50 to 100% | A (80-100)
11 | O=C(Nc1ccc(-c2ncn(-c3ccc(OC(F)(F)F)cc3)n2)cc1)Nc1ncccc1-c1ccccc1 [F32, 1-(3-Phenylpyridin-2-yl)-3-(4-(1-(4-(trifluoromethoxy)phenyl)-1H-1,2,4-triazol-3-yl)phenyl)urea] | – | – | B (More than 0 - Less than 80)
12 | Cc1ccccc1-c1cccnc1NC(=O)Nc1ccc(-c2ncn(-c3ccc(OC(F)(F)F)cc3)n2)cc1 [F24, 1-(3-(o-Tolyl)pyridin-2-yl)-3-(4-(1-(4-(trifluoromethoxy)phenyl)-1H-1,2,4-triazol-3-yl)phenyl)urea] | 50 to 100% | 50 to 100% | –
13 | Cc1cccc(NC(=O)NCCCc2ccc(-c3ncn(-c4ccc(OC(F)(F)F)cc4)n3)cc2)c1 [F87, 1-(m-Tolyl)-3-(3-(4-(1-(4-(trifluoromethoxy)phenyl)-1H-1,2,4-triazol-3-yl)phenyl)propyl)urea] | 0% | – | D (No activity noticed in this bioassay)
14 | Cc1ccccc1NC(=O)NCCCCc1ccc(-c2ncn(-c3ccc(OC(F)(F)F)cc3)n2)cc1 [F89, 1-(o-Tolyl)-3-(4-(4-(1-(4-(trifluoromethoxy)phenyl)-1H-1,2,4-triazol-3-yl)phenyl)butyl)urea] | – | 0% | D (No activity noticed in this bioassay)
15 | COc1cccc(NC(=O)NCCCCc2ccc(-c3ncn(-c4ccc(OC(F)(F)F)cc4)n3)cc2)c1 [F96, 1-(3-Methoxyphenyl)-3-(4-(4-(1-(4-(trifluoromethoxy)phenyl)-1H-1,2,4-triazol-3-yl)phenyl)butyl)urea] | – | 0% | D (No activity noticed in this bioassay)
16 | O=C(NCCCCc1ccc(-c2ncn(-c3ccc(OC(F)(F)F)cc3)n2)cc1)Nc1ccccc1Cl [F92, 1-(2-Chlorophenyl)-3-(4-(4-(1-(4-(trifluoromethoxy)phenyl)-1H-1,2,4-triazol-3-yl)phenyl)butyl)urea] | 0% | – | D (No activity noticed in this bioassay)
17 | Cc1ccc(NC(=O)NCCCc2ccc(-c3ncn(-c4ccc(OC(F)(F)F)cc4)n3)cc2)cc1 [F83, 1-(p-Tolyl)-3-(3-(4-(1-(4-(trifluoromethoxy)phenyl)-1H-1,2,4-triazol-3-yl)phenyl)propyl)urea] | 0% | – | D (No activity noticed in this bioassay)
18 | O=C(NCCCc1ccc(-c2ncn(-c3ccc(OC(F)(F)F)cc3)n2)cc1)Nc1ccc(Cl)cc1 [F79, 1-(4-Chlorophenyl)-3-(3-(4-(1-(4-(trifluoromethoxy)phenyl)-1H-1,2,4-triazol-3-yl)phenyl)propyl)urea] | 50 to 100% | – | D (No activity noticed in this bioassay)
19 | Cc1cccc(NC(=O)NCCCCc2ccc(-c3ncn(-c4ccc(OC(F)(F)F)cc4)n3)cc2)c1 [F91, 1-(m-Tolyl)-3-(4-(4-(1-(4-(trifluoromethoxy)phenyl)-1H-1,2,4-triazol-3-yl)phenyl)butyl)urea] | 0% | – | D (No activity noticed in this bioassay)
20 | CCc1ccccc1NC(=O)NCc1ccc(-c2ncn(-c3ccc(OC(F)(F)F)cc3)n2)cc1 [F101, 1-(2-Ethylphenyl)-3-(4-(1-(4-(trifluoromethoxy)phenyl)-1H-1,2,4-triazol-3-yl)benzyl)urea] | – | 0% | D (No activity noticed in this bioassay)
21 | Cc1ccccc1N(C(=O)Nc1ccc(-c2ncn(-c3ccc(OC(F)(F)F)cc3)n2)cc1)C(N)=S [F19, N-(2-methylphenyl)-N-(4-{1-[4-(trifluoromethoxy)phenyl]-1H-1,2,4-triazol-3-yl}phenyl)dicarbonimidothioic diamide] | 50 to 100% | 50 to 100% | –
